“And” between values parts separate entries of the source, which are not always exact repeats. Equal entries are not always repeated. Where two headings read alike, the source gives them in different places. Marks after values point to notes of the source that are not given here.
Experiments:
[1] = test system: CCRF-CEM human T-cell acute lymphoblastic leukemia cell line; test: XTT cytotoxicity (cell growth inhibition), CCRF-CEM
Procedure: (§1) The DC-3F hamster lung fibroblast cell line and its actinomycin D-selected sublines (DC-3F/ADII and DC-3F/ADX) were obtained from the Memorial Sloan-Kettering Cancer Center (MSKCC).
(§2) The drug-resistant cell lines were continuously cultured in the presence of the selecting agent, AD, DX, VBL or VM to maintain the drug resistant phenotypes. […] All cells were cultured in RPMI 1640-10% FBS at 37° C. 5% CO2 (see below).
(§3) The cells were cultured at an initial density of 5×10^4 cells/mL. They were maintained in a 5% CO2-humidified atmosphere at 37° C. in RPMI-1640 medium (GIBCO-BRL, Gaithersburg, Md.) containing penicillin (100 U/mL), streptomycin ([…]) (GIBCO-BRL) and 10% heat inactivate fetal bovine serum. Culture for cell suspension (such as for CCRF-CEM, P388 and sublines), were performed by the XTT-microculture tetrazonium method (Scudiero, D. A. et al., Cancer Res. 1988, 48, 4827-4833) in duplicate in 96-well microtiter plates.
(§4) 2′,3′-Bis(methoxy-4-nitro-5-sufophenyl)-5-[(phenylamino)carbonyl]2H-tetrazolium hyudroxide (XTT) was prepared at 1 mg/mL in prewarmed (37° C.) medium without serum. Phenazine methosulfate (PMS) and fresh XTT were mixed together to obtain 0.025 mM PMS-XTT solution (25 μL of the stock 5 mM PMS was added per 5 mL of 1 mg/mL XTT). Following a 72 h incubation, 50 μL of the assay aliquots were added to each well of the cell culture. After incubation at 37° C. for 4 h, absorbance at 450 nm and 630 nm was measured with a microplate reader (EL340, Bio-Tek Instruments, Inc., Winooski, Vt.).

[2] = test system: CCRF-CEM/VBL100; test: cells; assay type: cell-based, human
Procedure: as §2, §3, §4

[3] = test system: CCRF-CEM/VM1; test: cells; assay type: cell-based, human
Procedure: as §2, §3, §4

[4] = test system: DC-3F hamster lung fibroblast cell line; test: SRB cytotoxicity, DC-3F; assay type: cell-based; settings: Table 3; read-out: IC50
Procedure: as §1, §2
(§5) The cytotoxicity of the drug toward the monolayer cell cultures (such as DC-3F, MCF-7, SK-N-As and sublines) was determined in 96-well microtiter plates by the SRB method as described by Skehan and co-workers (Skehan, P., et al., J. Natl. Cancer Inst. 1990, 82, 1107-1112) for measuring the cellular protein content. Cultures were fixed with trichloroacetic acid and then stained for 30 min with 0.4% suforhodamine B dissolved in 1% acetic acid. Unbound dye was removed by acetic acid washes, and the protein-bound dye was extracted with an unbuffered Tris base (tris(hydroxy-methyl)aminomethane) for determination of absorbance at 570 nm in a 96-well microtiter plate reader. The experiments were carried out in duplicate. Each run entailed six to seven concentrations of the tested drugs. Data were analyzed with the median-effect plot (Chou, T.-C. & Talalay, P. T. (1984) Adv. Enzyme Regul. 22, 27-55) using a previously described computer program (Chou, J., & Chou T.-C. 1987, Dose-effect analysis with microcomputers: Quantitation of ED50, synergism, antagonism, low-dose risk, reception-ligand binding and enzyme kinetics, IBM-PC software and manual, Biosoft, Cambridge, U.K.).

[5] = test system: DC-3F/ADII; test: SRB cytotoxicity, DC-3F/ADII; assay type: cell-based, hamster; settings: Table 3; read-out: IC50
Procedure: as §1, §2, §5
(§6) Concerning Table 3, experiments were carried out using the cell lines DC-3F (parent hamster lung cells), DC-3F/ADII (moderate multidrug-resistant (MDR) cells) and DC-3F/ADX (very strong MDR cells).

[6] = test system: DC-3F/ADX; test: cells; assay type: cell-based, hamster; settings: Table 3; read-out: IC50
Procedure: as §1, §2, §5, §6

[7] = Table 2, CCRF-CEM/VLB, read-out: IC50
[8] = Table 2, CCR-CEM/VM-1, read-out: IC50
[9] = Table 6, single determinations, read-out: IC50
[10] = Table 6, read-out: IC50 (mean ± of determinations, in parentheses)

SMILES	IC50 ([1]; Table 2)	IC50 [2, 7]	IC50 [3, 8]	IC50 [4]	IC50 [5]	IC50 [6]	IC50 ([1]; Table 6, single determinations)	IC50 [2, 9]	IC50 [3, 9]	other results
C/C(=C\c1csc(C)n1)[C@@H]1C[C@@H]2O[C@@H]2CCC[C@H](C)[C@H](O)[C@@H](C)C(=O)C(C)(C)[C@@H](O)CC(=O)O1 [EPOTHILONE A SYNTHETIC, epothilone A]	2.9 nM	20.3 nM	3.4 nM	3.54 nM	13.2 nM	70 nM	–	–	–	IC50 ([1]; Table 5, single determinations): 2.1 nM; IC50 ([2]; Table 5, CCRF-CEM/VLB, single determinations, read-out: IC50): 15 nM
CC(=Cc1csc(C)n1)C1CC=CCCCC(C)C(O)C(C)C(O)C(C)(C)C(O)CC(=O)O1 (centres unmarked) [#2]	14200 nM	6280 nM	43900 nM	10300 nM	4600 nM	4810 nM	14200 nM	6280 nM	43900 nM	IC50 ([1]; Table 7, CEM): 14200 nM; IC50 ([1]; read-out: IC50 (A), Table 2A, parent cell line): 14200 nM; (B)/(A) ratio (fold resistance >1, collateral sensitivity <1) ([2]; Table 2A): (0.44)^b; IC50 ([2]; Table 2A, MDR cell line, read-out: IC50 (B)): 6280 nM; IC50 ([2]; Table 7, CEM/VBL, read-out: IC50): 6280 nM; (C)/(A) ratio (fold resistance >1, collateral sensitivity <1) ([3]; Table 2A): (309)^a; IC50 ([3]; Table 2A, Topo II gene mutated cell line, read-out: IC50 (C)): 43900 nM
C/C(=C\c1csc(C)n1)[C@@H]1C[C@@H]2O[C@@H]2CCC[C@H](C)[C@H](O)[C@@H](C)C(=O)C(C)(C)[C@@H](O)CC(=O)O1 [EPOTHILONE A NATURAL, epothilone A]	3.5 nM	27.2 nM	3.4 nM	3.68 nM	12.4 nM	53.3 nM	2.4 nM and 3.1 nM	21.1 nM and 18.9 nM	6 nM and 6.25 nM	IC50 ([1]; read-out: IC50 (mean ± of determinations, in parentheses), Table 6): 2.7 nM; relative resistance (fold) vs parent cell line ([2]; Table 6): (7.4X); IC50 [2, 10]: 20 nM; relative resistance (fold) vs parent cell line ([3]; Table 6): (2.3X); IC50 [3, 10]: 6.13 nM
